In publication PMC7279038, “Antioxidant and Neuroprotective Effects Induced by Cannabidiol and Cannabigerol in Rat CTX-TNA2 Astrocytes and Isolated Cortexes” (International Journal of Molecular Sciences, 2020):

Assays:
[1] = target: T1, AChE (acetylcholinesterase) (Electrophorus electricus, UniProt O42275); assay: AChE inhibition, colorimetric cholinesterase assay; assay type: biochemical, electric eel; settings: mean ± S.D., n = 3
T1 construct: purchased Sigma Aldrich S.r.l., Milan, Italy Type-VI-S (catalogue number not given)
T1 sequence (O42275 24-633): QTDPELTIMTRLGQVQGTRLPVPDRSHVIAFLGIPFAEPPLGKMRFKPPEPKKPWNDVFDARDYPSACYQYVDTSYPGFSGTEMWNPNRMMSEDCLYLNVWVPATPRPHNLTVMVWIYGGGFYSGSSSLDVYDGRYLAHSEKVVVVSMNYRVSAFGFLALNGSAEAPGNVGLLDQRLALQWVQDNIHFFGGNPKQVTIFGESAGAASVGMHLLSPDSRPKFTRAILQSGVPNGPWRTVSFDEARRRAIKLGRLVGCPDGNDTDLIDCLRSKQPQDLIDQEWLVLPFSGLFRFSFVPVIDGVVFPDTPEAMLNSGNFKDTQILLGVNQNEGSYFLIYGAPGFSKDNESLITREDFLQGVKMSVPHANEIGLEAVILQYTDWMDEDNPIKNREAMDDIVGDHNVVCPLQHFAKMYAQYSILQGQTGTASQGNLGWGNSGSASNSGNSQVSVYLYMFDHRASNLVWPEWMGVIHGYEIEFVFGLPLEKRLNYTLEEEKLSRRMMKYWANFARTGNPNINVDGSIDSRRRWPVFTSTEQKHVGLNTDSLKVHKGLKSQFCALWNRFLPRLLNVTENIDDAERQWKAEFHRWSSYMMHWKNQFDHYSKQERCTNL

[2] = DPPH scavenging ability test; settings: mean ± S.D., n = 3
Experimental: For the 1,1-diphenyl-2-picrylhydrazyl (DPPH) radical scavenging assay, sample solution was added to 4 mL of a 0.004% methanol solution of DPPH. The sample absorbance was read at 517 nm after a 30 min incubation at room temperature in the dark. DPPH radical scavenging activity was expressed as IC50 values.

Bax = assay: Western blotting analysis of Bax; assay type: cell-based, rat; settings: CTX-TNA2 challenged with H2O2, 24 h; 1000 nM CBD, 1 nM CBG
Experimental: […] The stock solutions were diluted in cell medium to the point that the concentration of DMSO in the samples was less than 0.0003%. Therefore, the addition of DMSO to the control samples was not necessary.
The western blowing analysis of Bax and Cyt C was carried out as previously reported. Specifically, CTX-TNA2 lysates (20 µg) were boiled fof 5 min in sample buffer, made of tris-HCl pH 6.8, glycerol, 2-mercaptoethanol, SDS and bromophenol blue. They were then electrophoresed and transferred to nitrocellulose membranes. […] Immunoreactive bands were identified using the ECL detection system (Euroclone, Pero, Milano, Italy) and analyzed by densitometry. Densitometric values were quantified by the CHEMIDOC XRS system and expressed as Integrated Optical Intensity using the QuantiOne 1-D analysis software (Bio-rad Laboratories, Richmond, CA, USA). […] Results are expressed as the mean ± SD.

histone H2B = assay: Untargeted proteomic analysis of cortexes, H2B; set-up: species or system rat; settings: CBD 1000 nM, CBG 1 nM
Experimental: Sprague–Dawley rats (200–250 g) were sacrificed by CO2 inhalation (Italian Health Ministry authorization N. F4738.N.XTQ, delivered on 11th November 2018) and isolated prefrontal cortex specimens were immediately explanted and incubated in thermostatic shaking bath at 37 °C for 1 h (incubation period), in Krebs–Ringer buffer at the following K^+ concentrations:
Cortexes were stimulated with CBD (1000 nM) and CBD (1 nM). Afterwards, specimens were homogenized in perchloric acid solution (0.05 M) for the extraction and quantification of nitrites, via the aforementioned colorimetric Griess assay, and serotonin (5-HT), 5-hydroxyindoleacetic (5HIIA),3-hydroxykinurenine (3-HK) and kinurenic acid (KA) (ng/mg wet tissue) via high performance liquid chromatography analysis. Additionally, an untargeted proteomic analysis was carried out on the cortex homogenate. The analytical protocols for 5-HT, 5HIIA, 3-HK, KA and protein level determinations are described below. […]
After protein quantification, a volume corresponding to 50 μg of proteins was loaded onto a Nanosep 10-kDa-cutoff filter (Pall Corporation, Michigan, USA) and digested according to the protocol we routinely use in our laboratory, adapted from Distler et al. Briefly, the sample was washed twice with 200 μL urea buffer (8M urea, 100 mM Tris pH 8.5 in milliQ water) to remove the detergents present in the lysis buffer. […]

C=C(C)[C@@H]1CCC(C)=C[C@H]1c1c(O)cc(CCCCC)cc1O [CBD, Cannabidiol]
IC50 [1]: 1040 ± 20 µM
IC50 [2]: 1870 ± 40 µM
Bax expression (Bax): keep Bax expression at values comparable to the control sample
effect on K+ 60 mM-induced reduction in H2B level (histone H2B): effective in counteracting the downregulation

CCCCCc1cc(O)c(C/C=C(\C)CCC=C(C)C)c(O)c1 [CBG, cannabigerol]
IC50 [1]: 1150 ± 30 µM
IC50 [2]: 1950 ± 10 µM
Bax expression (Bax): expression does not differ from the control sample
effect on K+ 60 mM-induced reduction in H2B level (histone H2B): effective in counteracting the downregulation
